Values belong to the compound of their own block, whether it stands above or below them. Active and inactive are the calls of the source.
Legend:
[1] = loss of HEK293T viability via ATP – cell-based, plate reader, dry powder, set 10, cytotoxicity control, dose response (AID 743315); type: functional; conditions: HEK293
[2] = antifungal growth inhibition under osmotic support – sorbitol, alamar blue, dry powder, set 3, mechanism study for C. neoformans lysis project, dose response (AID 743304); type: functional, organism-based
Caspase-3 = biological target: T1, Caspase-3 (Homo sapiens, UniProt P42574); type: functional;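 further: Dose-response selectivity test against caspase-3 for candidate inhibitors of sentrin-specific proteases (SENPs)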
T1 sequence (P42574 whole entry): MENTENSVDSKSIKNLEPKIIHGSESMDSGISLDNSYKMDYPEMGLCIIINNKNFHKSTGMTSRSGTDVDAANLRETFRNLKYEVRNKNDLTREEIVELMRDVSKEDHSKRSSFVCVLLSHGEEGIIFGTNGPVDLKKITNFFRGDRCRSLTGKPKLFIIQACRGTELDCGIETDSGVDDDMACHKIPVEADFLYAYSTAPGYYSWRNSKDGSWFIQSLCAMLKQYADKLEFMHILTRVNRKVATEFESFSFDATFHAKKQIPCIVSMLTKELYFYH

[3] = biological target: T2, Sentrin-specific protease 7 (Homo sapiens, UniProt Q9BQF6); type: functional;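 further: Luminescence-based dose-response confirmation of ultra-high-throughput screening hits, measuring inhibition of SENP7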
T2 sequence (Q9BQF6 whole entry): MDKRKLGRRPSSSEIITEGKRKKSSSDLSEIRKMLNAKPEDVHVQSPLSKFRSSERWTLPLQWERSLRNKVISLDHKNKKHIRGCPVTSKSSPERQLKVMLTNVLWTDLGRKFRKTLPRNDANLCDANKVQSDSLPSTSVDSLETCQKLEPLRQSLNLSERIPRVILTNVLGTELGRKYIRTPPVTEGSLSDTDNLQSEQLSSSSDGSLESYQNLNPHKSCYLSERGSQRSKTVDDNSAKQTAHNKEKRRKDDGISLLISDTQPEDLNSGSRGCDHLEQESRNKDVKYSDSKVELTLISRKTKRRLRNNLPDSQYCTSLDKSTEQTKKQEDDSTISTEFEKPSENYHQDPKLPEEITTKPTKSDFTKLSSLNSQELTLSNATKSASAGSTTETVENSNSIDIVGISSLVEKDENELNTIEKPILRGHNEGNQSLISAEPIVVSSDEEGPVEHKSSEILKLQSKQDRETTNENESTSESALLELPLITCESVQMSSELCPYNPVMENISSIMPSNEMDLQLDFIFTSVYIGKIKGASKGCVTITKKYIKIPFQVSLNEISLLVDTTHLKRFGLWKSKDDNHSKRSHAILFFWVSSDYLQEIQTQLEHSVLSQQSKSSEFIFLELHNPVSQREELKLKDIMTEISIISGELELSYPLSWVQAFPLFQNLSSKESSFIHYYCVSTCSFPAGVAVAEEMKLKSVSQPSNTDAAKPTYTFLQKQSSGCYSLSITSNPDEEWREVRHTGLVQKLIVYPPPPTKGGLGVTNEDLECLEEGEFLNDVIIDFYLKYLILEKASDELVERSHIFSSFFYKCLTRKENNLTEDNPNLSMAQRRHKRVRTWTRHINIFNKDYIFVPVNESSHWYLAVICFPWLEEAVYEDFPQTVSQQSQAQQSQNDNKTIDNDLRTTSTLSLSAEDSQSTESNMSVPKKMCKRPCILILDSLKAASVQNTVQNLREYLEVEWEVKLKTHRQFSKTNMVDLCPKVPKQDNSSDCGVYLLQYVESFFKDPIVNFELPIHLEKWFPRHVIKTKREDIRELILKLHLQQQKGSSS

[4] = biological target: T3, Sentrin-specific protease 6 (Homo sapiens, UniProt Q9GZR1); type: functional;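 further: Luminescence-based dose-response confirmatory assay of SENP6 inhibition, following up an ultra-high-throughput screen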
T3 sequence (Q9GZR1 whole entry): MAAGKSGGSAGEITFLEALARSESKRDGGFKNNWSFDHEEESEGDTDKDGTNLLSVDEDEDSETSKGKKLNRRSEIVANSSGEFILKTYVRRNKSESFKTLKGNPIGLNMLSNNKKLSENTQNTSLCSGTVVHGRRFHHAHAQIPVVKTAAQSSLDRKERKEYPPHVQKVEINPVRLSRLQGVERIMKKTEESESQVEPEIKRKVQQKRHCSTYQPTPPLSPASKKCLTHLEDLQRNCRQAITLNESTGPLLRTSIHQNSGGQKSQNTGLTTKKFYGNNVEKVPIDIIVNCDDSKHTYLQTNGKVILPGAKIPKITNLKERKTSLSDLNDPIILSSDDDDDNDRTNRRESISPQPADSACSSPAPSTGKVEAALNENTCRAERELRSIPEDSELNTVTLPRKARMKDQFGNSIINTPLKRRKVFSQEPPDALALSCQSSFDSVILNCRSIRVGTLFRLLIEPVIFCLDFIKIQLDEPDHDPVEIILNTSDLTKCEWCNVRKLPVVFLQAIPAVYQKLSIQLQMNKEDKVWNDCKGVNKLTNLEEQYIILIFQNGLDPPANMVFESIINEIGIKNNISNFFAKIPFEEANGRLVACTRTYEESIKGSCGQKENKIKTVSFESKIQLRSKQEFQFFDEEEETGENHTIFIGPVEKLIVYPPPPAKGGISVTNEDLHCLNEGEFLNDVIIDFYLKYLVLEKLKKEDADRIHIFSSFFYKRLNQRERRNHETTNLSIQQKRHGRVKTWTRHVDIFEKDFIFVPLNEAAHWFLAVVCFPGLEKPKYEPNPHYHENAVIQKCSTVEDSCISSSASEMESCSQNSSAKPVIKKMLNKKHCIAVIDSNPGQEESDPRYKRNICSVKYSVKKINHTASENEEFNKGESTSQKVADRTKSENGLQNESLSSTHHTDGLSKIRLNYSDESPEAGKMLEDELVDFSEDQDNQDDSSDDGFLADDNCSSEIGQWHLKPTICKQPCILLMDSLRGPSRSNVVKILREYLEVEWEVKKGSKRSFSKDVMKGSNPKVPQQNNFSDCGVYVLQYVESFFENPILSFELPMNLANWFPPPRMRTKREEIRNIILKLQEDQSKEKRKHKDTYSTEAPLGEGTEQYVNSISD

[5] = biological target: T4, Sentrin-specific protease 8 (Homo sapiens, UniProt Q96LD8); type: functional;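 further: luminescence read-out of SENP8 inhibition, dose-response confirmation following an ultra-high-throughput screen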
T4 sequence (Q96LD8 whole entry): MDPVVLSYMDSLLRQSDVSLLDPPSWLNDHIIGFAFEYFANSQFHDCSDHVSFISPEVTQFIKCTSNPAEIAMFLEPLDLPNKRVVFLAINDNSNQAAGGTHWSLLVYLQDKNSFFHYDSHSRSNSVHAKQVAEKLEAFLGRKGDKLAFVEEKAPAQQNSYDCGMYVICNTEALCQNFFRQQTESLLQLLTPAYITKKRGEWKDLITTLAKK

[6] = IC50 of Artemis nuclease activity blockers – biochemical, fluorescence intensity, dose response (AID 720701); type: functional;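 further: Artemis endonuclease enzyme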
[7] = antimalarial activity against Dd2 parasites – SYBR Green fluorescence, erythrocytes, dry powder, set 2, dose response (AID 1159574); type: functional, cell-based
[8] = melanocyte viability loss, MITF-dependent cells, cell-based, plate reader, dry powder, cytotoxicity control, dose response (AID 651920); type: functional
[9] = MITF Orthogonal Assay: SK-MEL-5 CTG Assay Measured in Cell-Based System Using Plate Reader - 2084-02_Inhibitor_Dose_DryPowder_Activity_Set7.; type: functional
[10] = inhibitors of TRPM1-promoter reporter in SK-MEL-5 – cell-based, luciferase, dry powder, set 9, MITF inhibitor project, dose response (AID 651588); type: functional
[11] = MITF: Counter assay: A375 proliferation Measured in Cell-Based System Using Plate Reader - 2084-03_Inhibitor_Dose_DryPowder_Activity_Set8.; type: functional; conditions: A-375
[12] = cytotoxicity in MITF-independent A375 cells – cell-based, CellTiter-Glo luminescence, dry powder, set 9, counter-screen for MITF modulator project, dose response (AID 651591); type: functional; conditions: A-375
[13] = growth inhibition of SK-MEL-5 melanoma cells – cell-based, CellTiter-Glo luminescence, dry powder, set 8, orthogonal assay for MITF inhibitor project, dose response (AID 651586); type: functional
[14] = growth inhibition of MALME3 cells – cell-based, CellTiter-Glo luminescence, dry powder, set 5, orthogonal assay for MITF inhibitor project, dose response (AID 651584); type: functional; conditions: MALME-3
[15] = MITF Orthogonal Assay: MALME3 CTG Assay Measured in Cell-Based System Using Plate Reader - 2084-04_Inhibitor_Dose_DryPowder_Activity_Set6.; type: functional; conditions: MALME-3
[16] = inhibitors of TRPM1-promoter reporter in SK-MEL-5 – cell-based, luciferase, dry powder, set 8, MITF inhibitor project, dose response (AID 624430); type: functional
[17] = toxicity to human hepatoma HepG2 cells – cell-based, cherry-picked samples, cytotoxicity control, dose response (AID 1159577); type: functional
[18] = P. falciparum Dd2 growth inhibitors, dose response, SYBR Green, cherry-picked samples (AID 1159567); type: functional, cell-based
[19] = viability loss in A549 lung cancer cells – cell-based, cherry-picks, […], cytotoxicity control, dose response (AID 1053119); type: functional
[20] = inhibition of fibronectin matrix deposition – AH1F cells, Alexa488-fibronectin fluorescence, cherry-pick, set 2, dose response (AID 1117283); type: functional, cell-based
[21] = biological target: Glutathione-S-transferase (Schistosoma japonicum, UniProt Q26513); assay: GST-antibody interaction or FRET quenching – biochemical, TR-FRET, artefact control for Vif-APOBEC3G degradation inhibitor project, dose response (AID 1117362); type: functional
Glutathione-S-transferase, sequence (Q26513 whole entry): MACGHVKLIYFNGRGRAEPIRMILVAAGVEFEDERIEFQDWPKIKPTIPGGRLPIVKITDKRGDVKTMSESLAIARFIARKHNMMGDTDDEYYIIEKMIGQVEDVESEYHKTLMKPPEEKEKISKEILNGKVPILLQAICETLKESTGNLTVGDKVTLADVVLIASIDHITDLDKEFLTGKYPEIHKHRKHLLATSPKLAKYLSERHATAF

SMILES: CSc1nc2ccccc2n1CCOc1cc(C)ccc1C(C)C
AC50 [1]: > 52 µM (inactive) | AC50 [2]: 41.6 µM (active)

IC50 (Caspase-3): 17.4 µM (active) | IC50 [3]: 21.2 µM (active) | IC50 [4]: 12.3 µM (active) | IC50 [6]: > 20 µM (inactive)
SMILES: Brc1ccc(-c2cn3nc4c(nc3n2)CCCC4)cc1
IC50 [5]: 17.7 µM (active)

SMILES: COc1ccc(NC(=O)N2CCCCN3[C@H](CO)[C@@H](c4ccc(C#Cc5ccccc5)cc4)[C@H]3C2)cc1
AC50 [7]: 4.04 µM (active)

SMILES: COc1ccc(NC2=C(N3CCCCC3)C(=O)c3ccccc3C2=O)cc1
AC50 [8]: 40.9 µM (active) | AC50 [9]: 3.73 µM (active) | AC50 [10]: 12 µM (active) | AC50 [11]: > 70 µM (inactive) | AC50 [12]: 42.4 µM (active) | AC50 [13]: 26.8 µM (active) | AC50 [14]: 11.2 µM (active) | AC50 [15]: 11.2 µM (active) | AC50 [16]: 2.48 µM (active)

SMILES: C[C@@H]1CN([C@@H](C)CO)C(=O)c2cccc(NC(=O)Nc3ccc(C(F)(F)F)cc3)c2O[C@H]1CN(C)C(=O)Nc1cccc2ccccc12
AC50 [17]: > 39 µM (inactive) | AC50 [18]: 7.88 µM (active) | AC50 [19]: > 52 µM (inactive) | AC50 [20]: > 70 µM (inactive)

IC50 [21]: > 100 µM (active)
SMILES: O=C(O)c1ccc(S(=O)(=O)c2ccc([N+](=O)[O-])cc2[N+](=O)[O-])cc1

— ChEMBL document CHEMBL1201862, “PubChem BioAssay data set” (2004)
